This is an account of results in patent US11773379B2, “Enzymes and reagents for measurement of short chain fatty acids” (SYSMEX CORPORATION, priority 2018, dated 2023).

The target in one experiment is T1, acetate kinase (AK) (Escherichia coli, UniProt P0A6A3).
T1 construct: purchased Sigma-Aldrich Co. LLC
Kind of experiment: Comparative Example 1: measurement using acetate kinase, reaction recovery rate. The class given is biochemical, E. coli. As to conditions: 5 mM substrate. The method, then:
(§1) It was examined whether butyric acid could be measured by using acetate kinase (AK) or propionic acid kinase (PK) instead of butyrate kinase. For comparison, measurement using BKIII was also performed.
(§2) Neutralized 100 mM acetic acid, butyric acid, and isobutyric acid were mixed with physiological saline to prepare a 5 mM acetic acid aqueous solution, a 5 mM butyric acid aqueous solution, and a 5 mM isobutyric acid aqueous solution, respectively.
(§3) The composition of the first reagent was the same as that of the first reagent used for examining the substrate specificity of Reference Example 7.
(§4) AK (Sigma-Aldrich Co. LLC., derived from E. coli), PK (MyBioSource, recombinant protein) and BKIII were added to 100 mM Tris-HCl (pH 7.5) (Sigma-Aldrich Co. LLC.), respectively, to prepare an enzyme solution containing each enzyme at a concentration of 1.25 to 40 U/mL.
(§5) The measurement was performed using a 7180 type Hitachi automatic analyzer (Hitachi High-Tech Corporation). The measurement parameters of the automatic analyzer were the same as in Example 2.
(§6) In the same manner as in Example 2, butyric acid and isobutyric acid in the sample were measured by the automatic analyzer. The reaction recovery rate (%) was calculated by dividing the measured value by the theoretical absorbance value. The theoretical absorbance is the absorbance when all the substrate (butyric acid or isobutyric acid) in the sample is converted to NADPH, and is calculated by the following formula. […] (Theoretical absorbance)= (substrate concentration in sample)×[(sample volume)/(sample volume+ first reagent amount+second reagent amount)]×(NADPH millimole molecular extinction coefficient at 340 nm)= 5×[3.5/(3.5+140+35)]×6.3= 0.617

Experiment [1] concerns BKIII (recombinant butyrate kinase derived from Thermosediminibacter oceani). Description: Substrate specificity of butyrate kinase BKIII. The class given is biochemical. As to conditions: 100 mM sodium salt of fatty acid in second reagent, pH 7.5. The method, then: (§7) Various fatty acids shown in Table 1 were used as a substrate. The measurement was performed using a 7180 type Hitachi automatic analyzer (Hitachi High-Tech Corporation). […] PHARMA CORPORATION) • 5 U/mL ADP-HK II (ADP dependent hexokinase: […] PHARMA CORPORATION) […] In the composition of the second reagent, “sodium salts of various fatty acids” means any one kind of sodium caprylate, sodium caproate, sodium valerate, sodium isovalerate, sodium butyrate, sodium isobutyrate, sodium propionate, sodium acetate, sodium lactate, and sodium succinate. Isobutyric acid, valeric acid, isovaleric acid, caproic acid, and octanoic acid, which are commercially available fatty acids and are not sold as sodium salts, were adjusted to pH 7.5 with sodium hydroxide. […] [Measurement Parameters of Automatic Analyzer] • Analysis method: […]

In experiment [2] the test system is BKII (recombinant butyrate kinase derived from Acetoanaerobium sticklandii). Description: Substrate specificity of butyrate kinase BKII. The class given is biochemical. As to conditions: 100 mM sodium salt of fatty acid in second reagent, pH 7.5. The method, then: as §7
The subject of experiment [3] is propionic acid kinase (PK). Kind of experiment: Comparative Example 1: measurement using propionic acid kinase, reaction recovery rate. As to conditions: 5 mM substrate. The class given is biochemical. Here is the method:
as §1, §2, §3, §4, §5, §6

In experiment [4] the test system is butyrate-acetoacetate-CoA transferase (EC 2.8.3.9). Kind of experiment: Comparative Example 3: measurement using butyrate-acetoacetate-CoA transferase, reaction recovery rate. Type of experiment: biochemical, E. coli. As to conditions: 60 μg/mL butyrate-acetoacetate-CoA transferase in second reagent; 5 mM substrate. Here is the method:
It was examined whether acetic acid and butyric acid could be measured by the reaction of formula (12), which is the reverse reaction of the formula (11), using butyrate-[…] transferase instead of butyrate kinase. […] The measurement was performed using a 7180 type Hitachi automatic analyzer (Hitachi High-Tech Corporation). […] LLC.) • 0.35 mM Acetoacetyl-CoA (Sigma-Aldrich Co. LLC.) • 2 mM MgCl2 (FUJIFILM Wako Pure Chemical Corporation) • 0.25 mM β-NADH (Oriental Yeast Co., Ltd.) • 5 U/mL 3-hydroxybutyrate dehydrogenase (FUJIFILM Wako Pure Chemical Corporation) […] LLC.) The measurement was performed using a 7180 type Hitachi automatic analyzer (Hitachi High-Tech Corporation). The measurement parameters of the automatic analyzer were the same as in Example 2.

The test system of experiment [5] is acetate-CoA transferase (EC 2.8.3.8). Kind of experiment: Comparative Example 2: measurement using acetate-CoA transferase, reaction recovery rate. Type of experiment: biochemical, E. coli. As to conditions: 30 μg/mL acetate-CoA transferase in second reagent; 5 mM substrate. The text has this: Acetate-CoA transferase (EC 2.8.3.8) has been reported to catalyze the reaction represented by the following formula (9) (EC 2.8.3.8 in the Enzyme nomenclature database on the ExPASy-SIB Bioinformatics Resource Portal).). It was examined whether butyric acid could be measured by the reaction of formula (10), which is the reverse reaction of formula (9), using acetate-CoA transferase instead of butyrate kinase The acetic acid produced by the formula (10) by acetate-CoA transferase was confirmed by the reaction with AK of Comparative Example 1. The measurement was performed using a 7180 type Hitachi automatic analyzer (Hitachi High-Tech Corporation). [Chemical formula 7] Acyl-CoA+acetic acid ? fatty acid+acetyl-CoA (9) Butyric acid+acetyl-CoA→butyrate-CoA+acetic acid (10)
The 5 mM butyric acid and 5 mM isobutyric acid aqueous solution used in Comparative Example 1 were used. […]
In the same manner as in Example 2, butyric acid and isobutyric acid in the sample were measured by the automatic analyzer. The reaction recovery rate (%) was calculated by dividing the measured value by the theoretical absorbance value of Comparative Example 1.

A further experiment has as its system BKIII. Kind of experiment: Comparative Example 1: measurement using BKIII, reaction recovery rate. The class given is biochemical, Thermosediminibacter oceani. As to conditions: 5 mM substrate. Here is the method: as §1, §2, §3, §4, §5, §6
[6] abbreviates: AK activity value in reaction mixed solution 0.3 U/mL.
[7] abbreviates: AK activity value in reaction mixed solution 0.5 U/mL.
Where [8] appears, read: AK activity value in reaction mixed solution 1.0 U/mL.
The mark [9] stands for this setting: AK activity value in reaction mixed solution 2.0 U/mL.
Setting [10] is: AK activity value in reaction mixed solution 4.0 U/mL.
[11] abbreviates: AK activity value in reaction mixed solution 8.0 U/mL.
The mark [12] stands for this setting: PK activity value in reaction mixed solution 0.3 U/mL.
Where [13] appears, read: PK activity value in reaction mixed solution 0.5 U/mL.
The mark [14] stands for this setting: PK activity value in reaction mixed solution 1.0 U/mL.
Where [15] appears, read: PK activity value in reaction mixed solution 2.0 U/mL.
Where [16] appears, read: PK activity value in reaction mixed solution 4.0 U/mL.
Where [17] appears, read: PK activity value in reaction mixed solution 8.0 U/mL.
Where [18] appears, read: BKIII activity value in reaction mixed solution 0.3 U/mL.
[19] abbreviates: BKIII activity value in reaction mixed solution 0.5 U/mL.
Setting [20] is: BKIII activity value in reaction mixed solution 1.0 U/mL.
Where [21] appears, read: BKIII activity value in reaction mixed solution 2.0 U/mL.
Setting [22] is: BKIII activity value in reaction mixed solution 4.0 U/mL.
Setting [23] is: BKIII activity value in reaction mixed solution 8.0 U/mL.

T1 sequence (P0A6A3 whole entry): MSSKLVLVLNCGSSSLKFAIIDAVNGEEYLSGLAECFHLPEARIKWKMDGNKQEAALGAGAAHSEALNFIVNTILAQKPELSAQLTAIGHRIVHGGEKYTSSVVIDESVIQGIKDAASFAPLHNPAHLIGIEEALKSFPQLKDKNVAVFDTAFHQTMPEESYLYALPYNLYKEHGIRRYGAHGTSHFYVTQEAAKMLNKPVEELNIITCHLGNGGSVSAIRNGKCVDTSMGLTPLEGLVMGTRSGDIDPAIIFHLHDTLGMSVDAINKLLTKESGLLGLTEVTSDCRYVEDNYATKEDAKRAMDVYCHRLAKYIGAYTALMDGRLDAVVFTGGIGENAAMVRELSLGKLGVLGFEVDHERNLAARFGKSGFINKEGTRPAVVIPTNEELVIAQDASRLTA

For the compound `CCCC(=O)O` [Butyric acid], the reaction recovery rate on acetate kinase (AK) (setting [6]), at acetate kinase (AK) (setting [7]), on acetate kinase (AK) (setting [8]), at acetate kinase (AK) (setting [9]), at acetate kinase (AK) (setting [10]) and at acetate kinase (AK) (setting [11]) was 0% in each case. In addition, the reaction recovery rate in experiment [3] (setting [12]) was 0%; in experiment [3] (setting [13]) it was 0%; in experiment [3] (setting [14]) it was 0%; in experiment [3] (setting [15]) it was 2%; in experiment [3] (setting [16]) it was 4%; in experiment [3] (setting [17]), 8%. The reaction recovery rate in the experiment with BKIII (setting [18]) was found to be 36%; in the experiment on BKIII (setting [19]), 53%; in the experiment with BKIII (setting [20]), 70%; in the experiment with BKIII (setting [21]), 84%; in the experiment with BKIII (setting [22]) it was 93%; in the experiment on BKIII (setting [23]), 98%. The “substrate specificity, relative value when the activity value with respect to butyric acid is 100” value in experiment [1] and in experiment [2] was 100% in each case. For the same compound, the “Reaction recovery rate (%)” value in experiment [4] was determined as 2%; in experiment [5] it was 3%.

On to `CC(C)C(=O)O` [Isobutyric acid], for which the reaction recovery rate at acetate kinase (AK) (setting [6]), on acetate kinase (AK) (setting [7]), on acetate kinase (AK) (setting [8]), at acetate kinase (AK) (setting [9]), on acetate kinase (AK) (setting [10]) and on acetate kinase (AK) (setting [11]) was 0% throughout. The reaction recovery rate in experiment [3] (setting [12]), in experiment [3] (setting [13]), in experiment [3] (setting [14]), in experiment [3] (setting [15]), in experiment [3] (setting [16]) and in experiment [3] (setting [17]) was 0% in each case. Besides, the reaction recovery rate in the experiment on BKIII (setting [18]) stood at 40%; in the experiment on BKIII (setting [19]) it was 55%; with BKIII (setting [20]) it was 70%; in the experiment with BKIII (setting [21]) it was 83%; in the experiment with BKIII (setting [22]), 91%; in the experiment on BKIII (setting [23]), 96%. Moreover, the “substrate specificity, relative value when the activity value with respect to butyric acid is 100” value in experiment [1] worked out at 80%; in experiment [2] it was 84%. For the same compound, the “Reaction recovery rate (%)” value in experiment [4] stood at 2%; in experiment [5], 4%.
